Test results from patent publication US20260200849A1, “CATIONIC LIPIDS AND PREPARATION METHOD THEREOF” (RiboX Therapeutics HK Limited, priority 2024, published 2026).
Where “and” joins values, the source holds several entries; their conditions need not be identical. Equal entries are not always repeated. Where two headings read alike, the source gives them in different places.

Columns and labels:
IL-6 = experiment: In vivo tolerability by IV: serum IL-6 by Luminex; parameters: species or system C57BL/6J mice; settings: IV 1.0 mg/kg, male C57BL/6J mice N=3, Formulation 001, RNA 331
Procedure: (§1) 6-8 week old, male C57BL/6J mice (N=3) were injected with 1.0 mg*kg/1 of RNA-LNPs encoding for firefly-luciferase by intravenous injection. At 2- and 24-hours post injection, about 40 μL blood was harvested and immediately added to the procoagulant containing tube. Stand for 30 min at room temperature and then centrifuged at 2500 g×10 min to obtain serum. About 15 μL serum samples were aliquoted for cytokine (MCP-1 and IL-6) detection by Luminex (ProcartaPlex Mouse 2-plex, Thermo). PBS group as negative control.
(§2) 6-8 week old, male C57BL/6J mice (N=3) were injected with 1.0 mg*kg−1 of RNA-LNPs encoding for firefly-luciferase by intravenous injection. At 2- and 24-hours post injection, about 40 μL blood was harvested and immediately added to the procoagulant containing tube. Stand for 30 min at room temperature and then centrifuged at 2500 g×10 min to obtain serum. About 15 μL serum samples were aliquoted for cytokine (MCP-1 and IL-6) detection by Luminex (ProcartaPlex Mouse 2-plex, Thermo). PBS group as negative control.

MCP-1 = experiment: In vivo tolerability by IV: serum MCP-1 by Luminex; parameters: species or system C57BL/6J mice; settings: IV 1.0 mg/kg, male C57BL/6J mice N=3, Formulation 001, RNA 331
Procedure: as §1, §2

[1] = RNA encapsulation efficacy (EE %) by Quant-IT Ribogreen kit; type: physicochemical; settings: LNP
Procedure: (§3) The LNP size and polydispersity index (PDI), determined by dynamic light scattering (DLS), and zeta potential were measured by a Zetasizer machine (Malvern). RNA concentration and encapsulation efficacy (EE %) were analyzed by the Quant-IT Ribogreen kit by calculating the percentage encapsulation at 100%—(RNA-LNPs/RNA-LNPs with Triton X-100).

[2] = LNP size and polydispersity index (PDI) by dynamic light scattering (Zetasizer); type: physicochemical; settings: for Size (nm): Formulation No. 001 (Ionizable lipid:DSPC:cholesterol:DMG-PEG2000 = 50:10:38.5:1.5, N/P 6), RNA No. 331
Procedure: as §3

C57BL/6J mice = experiment: In vivo expression by IV, 1.0 mg/kg luciferase RNA-LNPs, whole-body and organ IVIS luminescence; settings: IV 1.0 mg/kg, 24 h post injection, male C57BL/6J mice N=3, Formulation 001, RNA 331
Procedure: 6-8 week old, male C57BL/6J mice (N=3) were injected with 1.0 mg*kg−1 of RNA-LNPs encoding for firefly-luciferase by intravenous injection. At 24-hours post injection, animals were intraperitoneally injected with 15 mg/ml of Luciferin substrate and whole-body/liver/spleen/kidney/small intestine/large intestine luminescence were determined by a bioluminescent in vivo imaging system (IVIS).
6-8 week old, male C57BL/6J mice (N=3) were injected with 1.0 mg*kg−1 of RNA-LNPs encoding for firefly-luciferase by intravenous injection. At 24-hours post injection, animals were intraperitoneally injected with 15 mg/nil of Luciferin substrate and whole-body/liver/spleen/kidney/small intestine/large intestine luminescence were determined by a bioluminescent in vivo imaging system (IVIS).

Balb/c mice = experiment: In vivo expression by IV, 0.05 mg/kg luciferase RNA-LNPs, IVIS luminescence; settings: IV 0.05 mg/kg, 24 h post injection, female Balb/c mice N=3, Formulation 001, RNA 331
Procedure: 7-8 week old, female Balb/c mice (N=3) were injected with 0.05 mg*kg−1 of RNA-LNPs encoding for firefly-luciferase by intravenous injection. At 24- and 72-hours post injection, animals were intraperitoneally injected with 15 mg/mi of Luciferin substrate and whole-body luminescence was determined by a bioluminescent in vivo imaging system (IVIS).
7-8 week old, female Balb/c mice (N=3) were injected with 0.05 mg*kg−1 of RNA-LNPs encoding for firefly-luciferase by intravenous injection. At 24-hours post injection, animals were intraperitoneally injected with 15 mg/ml of Luciferin substrate and whole-body/liver/spleen luminescence was determined by a bioluminescent in vivo imaging system (IVIS).

[3] = In vivo lipid metabolism by IV: ionizable lipid concentration in plasma and liver by LC-MS/MS; parameters: species or system Sprague-Dawley (SD) rats; settings: IV 0.15 mg/kg RNA-LNPs (hEPO), male SD rats, individual animals N=3
Procedure: In Vivo Lipid Metabolism by IV 7-8 week old, male Sprague-Dawley (SD) rats (N=3) were injected with 0.15 mg*kg−1 of RNA-LNPs encoding for hEPO by intravenous injection. At 1-/6-/96-/168-hours post injection, about 100 μL blood will be harvested and immediately added to the EDTAK2 containing tube. Place on wet ice and then centrifuged at 3000 g×5 min to obtain plasma. 30 μL plasma will be aliquoted to the 1.5 mL tubes. At terminal 6-/168-hours post injection, the rats will be euthanized with CO2, hemorrhaged immediately with cardiac puncture, respectively. The livers were harvested, weighed and washed with saline, then put into 50 ml centrifuge tube placed in liquid nitrogen, then transferred into wet ice, and finally stored at −80° C. immediately. Both plasma and liver samples were used for ionizable lipid concentration quantification by LC-MS/MS. The lower limit of quantitation (LLOQ) is 1 ng/mL in plasma or 11 ng/g in liver. BQL—Below the lower limit of quantitation (LLOQ).

[4] = Formulation No. 001, RNA No. 331
[5] = Formulation No. 001, RNA No. 019 (hEPO)

Compound | IL-6 at 2 h (IL-6) | IL-6 at 24 h (IL-6) | MCP-1 at 2 h (MCP-1) | MCP-1 at 24 h (MCP-1) | EE (%) [1, 4] | PDI [2, 4] | Size [2, 4] | Kidney (p/s) (C57BL/6J mice) | Large intestine (p/s) (C57BL/6J mice) | Liver (p/s) (C57BL/6J mice) | Small intestine (p/s) (C57BL/6J mice) | Spleen (p/s) (C57BL/6J mice) | Whole body (p/s) (C57BL/6J mice) | Liver (p/s) (Mean) (Balb/c mice) | Spleen (p/s) (Mean) (Balb/c mice) | Whole body (p/s) (Mean) (Balb/c mice) | Size (nm) [2] | also measured
CCCCCCCCCCC(CCCCCCCC)COC(=O)CCCCCOC(=O)NC(COC(=O)NCCN(C)C)C(=O)OCCCCCC(=O)OCC(CCCCCCCC)CCCCCCCCCC (stereo not shown) [Lipid 1017] | 12.8 pg/mL | 0.792 pg/mL | 2430 pg/mL | 94.6 pg/mL | 97.70% | 0.07 | 69.70 nm | 9.00E+06 p/s | 2.09E+07 p/s | 9.32E+08 p/s | 1.93E+08 p/s | 4.32E+08 p/s | 1.13E+09 p/s | 3.91E+07 p/s | 1.30E+07 p/s | 2.45E+08 p/s | – | –
CCCCCCCCCCC(CCCCCCCC)COC(=O)CCCCCOC(=O)NC(COC(=O)NCCN1CCCC1)C(=O)OCCCCCC(=O)OCC(CCCCCCCC)CCCCCCCCCC (stereo not shown) [Lipid 1019] | 404 pg/mL | 2.02 pg/mL | 3720 pg/mL | 401 pg/mL | 97.11% | 0.10 | 68.78 nm | 1.46E+07 p/s | 2.12E+08 p/s | 1.20E+09 p/s | 5.41E+08 p/s | 4.98E+08 p/s | 2.49E+09 p/s | 3.60E+07 p/s | 2.21E+07 p/s | 2.46E+08 p/s | – | –
CCCCCCCCCCC(CCCCCCCC)COC(=O)CCCCCOC(=O)NC(COC(=O)NCCN1CCCCC1)C(=O)OCCCCCC(=O)OCC(CCCCCCCC)CCCCCCCCCC (stereo not shown) [Lipid 1020] | 90.5 pg/mL | 1.07 pg/mL | 1930 pg/mL | 180 pg/mL | 94.34% | 0.01 | 57.55 nm | 5.29E+07 p/s | 2.16E+08 p/s | 1.90E+10 p/s | 1.62E+09 p/s | 1.14E+09 p/s | 9.25E+09 p/s | 1.38E+08 p/s | 2.67E+07 p/s | 4.91E+08 p/s | – | Plasma (ng/mL), ionizable lipid concentration ([3]; 1 h post injection): 2412 ng/mL and 2622 ng/mL; Liver (ng/g), ionizable lipid concentration ([3]; 6 h post injection): 38824 ng/g and 43259 ng/g; Plasma (ng/mL), ionizable lipid concentration ([3]; 6 h post injection): 1241 ng/mL and 1471 ng/mL; Plasma (ng/mL), ionizable lipid concentration ([3]; 96 h post injection): 31.2 ng/mL and 26.1 ng/mL; Liver (ng/g), ionizable lipid concentration ([3]; 168 h post injection): 2432 ng/g and 1960 ng/g; Plasma (ng/mL), ionizable lipid concentration ([3]; 168 h post injection): 7.35 ng/mL and 11.3 ng/mL and 4.48 ng/mL; concentration at 6 h ([3]; male, Sprague-Dawley, rat, liver, iv, 0.15 mg/kg, 6 h post injection, read-out: Liver (ng/g), ionizable lipid concentration): 36500 ng/g; concentration at 168 h ([3]; male, Sprague-Dawley, rat, liver, iv, 0.15 mg/kg, 168 h post injection, read-out: Liver (ng/g), ionizable lipid concentration): 2890 ng/g; concentration at 1 h ([3]; male, Sprague-Dawley, rat, plasma, iv, 0.15 mg/kg, 1 h post injection): 2420 ng/mL; concentration at 6 h ([3]; male, Sprague-Dawley, rat, plasma, iv, 0.15 mg/kg, 6 h post injection, read-out: Plasma (ng/mL), ionizable lipid concentration): 1210 ng/mL; concentration at 96 h ([3]; male, Sprague-Dawley, rat, plasma, iv, 0.15 mg/kg, 96 h post injection): 33.6 ng/mL; EE (%) [1, 5]: 97.29%; PDI [2, 5]: 0.06; Size [2, 5]: 55.95 nm
CCCCCCCC/C=C\CCCCCCCCOC(=O)NC(COC(=O)NCCN1CCCCCC1)C(=O)OCCCCCC(=O)OCC(CCCCCCCC)CCCCCCCCCC (stereo not shown) [Lipid 1041] | 51.2 pg/mL | 4.53 pg/mL | 1180 pg/mL | 68.1 pg/mL | 90.29% | 0.08 | – | 6.14E+06 p/s | 1.74E+07 p/s | 1.08E+09 p/s | 1.96E+08 p/s | 1.93E+08 p/s | 8.03E+08 p/s | – | – | – | 59.33 nm | –
CCCCCCCCCCC(CCCCCCCC)COC(=O)CCCCCOC(=O)NC(COC(=O)NCCN1CCCCCC1)C(=O)OCCCCCCCC(=O)OC(CCCCCCCC)CCCCCCCC (stereo not shown) [Lipid 1072] | 2.07 pg/mL | 0.947 pg/mL | 554 pg/mL | 35.1 pg/mL | 96.51% | 0.04 | – | 8.41E+06 p/s | 1.22E+07 p/s | 1.40E+10 p/s | 2.07E+08 p/s | 1.95E+08 p/s | 6.81E+09 p/s | – | – | – | 52.67 nm | –
